Activity calls are given as the source filed them.
How the values were obtained:
[1] = biological target: Cyclin-dependent kinase 12 (Homo sapiens, UniProt Q9NYV4)
[2] = biological target: Adenylate kinase 2, mitochondrial (Homo sapiens, UniProt P54819)
[3] = biological target: T1, Signal recognition particle receptor subunit alpha (Homo sapiens, UniProt P08240)
T1 sequence (P08240 whole entry): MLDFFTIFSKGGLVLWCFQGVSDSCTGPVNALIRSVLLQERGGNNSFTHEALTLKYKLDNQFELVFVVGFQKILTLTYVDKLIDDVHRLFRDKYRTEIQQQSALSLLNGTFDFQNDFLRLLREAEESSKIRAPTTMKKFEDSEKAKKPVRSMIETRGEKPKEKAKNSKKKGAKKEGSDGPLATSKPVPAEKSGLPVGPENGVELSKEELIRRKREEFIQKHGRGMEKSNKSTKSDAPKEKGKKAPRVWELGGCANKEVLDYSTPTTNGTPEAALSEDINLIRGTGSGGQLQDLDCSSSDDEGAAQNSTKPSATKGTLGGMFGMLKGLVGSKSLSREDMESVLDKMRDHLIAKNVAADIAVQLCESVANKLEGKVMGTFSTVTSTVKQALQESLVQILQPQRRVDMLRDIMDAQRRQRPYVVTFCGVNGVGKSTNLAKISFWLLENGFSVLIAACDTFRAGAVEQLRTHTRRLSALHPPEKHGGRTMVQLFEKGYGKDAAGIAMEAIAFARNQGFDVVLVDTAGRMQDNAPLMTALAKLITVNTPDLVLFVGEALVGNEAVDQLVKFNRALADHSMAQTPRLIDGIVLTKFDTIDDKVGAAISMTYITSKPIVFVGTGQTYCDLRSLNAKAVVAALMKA

[4] = biological target: T2, EKC/KEOPS complex subunit TP53RK (Homo sapiens, UniProt Q96S44)
T2 sequence (Q96S44 whole entry): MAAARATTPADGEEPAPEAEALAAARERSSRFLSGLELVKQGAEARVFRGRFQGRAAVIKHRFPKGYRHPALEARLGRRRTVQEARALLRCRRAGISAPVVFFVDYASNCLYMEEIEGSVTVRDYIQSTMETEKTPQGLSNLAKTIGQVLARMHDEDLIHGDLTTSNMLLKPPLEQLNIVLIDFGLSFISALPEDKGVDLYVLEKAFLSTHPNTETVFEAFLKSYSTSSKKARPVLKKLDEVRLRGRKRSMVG

Measured: Kd
Further: in the data inactive means no Kd found up to 30 µM.

Cyclin-dependent kinase 12, sequence (Q9NYV4 whole entry): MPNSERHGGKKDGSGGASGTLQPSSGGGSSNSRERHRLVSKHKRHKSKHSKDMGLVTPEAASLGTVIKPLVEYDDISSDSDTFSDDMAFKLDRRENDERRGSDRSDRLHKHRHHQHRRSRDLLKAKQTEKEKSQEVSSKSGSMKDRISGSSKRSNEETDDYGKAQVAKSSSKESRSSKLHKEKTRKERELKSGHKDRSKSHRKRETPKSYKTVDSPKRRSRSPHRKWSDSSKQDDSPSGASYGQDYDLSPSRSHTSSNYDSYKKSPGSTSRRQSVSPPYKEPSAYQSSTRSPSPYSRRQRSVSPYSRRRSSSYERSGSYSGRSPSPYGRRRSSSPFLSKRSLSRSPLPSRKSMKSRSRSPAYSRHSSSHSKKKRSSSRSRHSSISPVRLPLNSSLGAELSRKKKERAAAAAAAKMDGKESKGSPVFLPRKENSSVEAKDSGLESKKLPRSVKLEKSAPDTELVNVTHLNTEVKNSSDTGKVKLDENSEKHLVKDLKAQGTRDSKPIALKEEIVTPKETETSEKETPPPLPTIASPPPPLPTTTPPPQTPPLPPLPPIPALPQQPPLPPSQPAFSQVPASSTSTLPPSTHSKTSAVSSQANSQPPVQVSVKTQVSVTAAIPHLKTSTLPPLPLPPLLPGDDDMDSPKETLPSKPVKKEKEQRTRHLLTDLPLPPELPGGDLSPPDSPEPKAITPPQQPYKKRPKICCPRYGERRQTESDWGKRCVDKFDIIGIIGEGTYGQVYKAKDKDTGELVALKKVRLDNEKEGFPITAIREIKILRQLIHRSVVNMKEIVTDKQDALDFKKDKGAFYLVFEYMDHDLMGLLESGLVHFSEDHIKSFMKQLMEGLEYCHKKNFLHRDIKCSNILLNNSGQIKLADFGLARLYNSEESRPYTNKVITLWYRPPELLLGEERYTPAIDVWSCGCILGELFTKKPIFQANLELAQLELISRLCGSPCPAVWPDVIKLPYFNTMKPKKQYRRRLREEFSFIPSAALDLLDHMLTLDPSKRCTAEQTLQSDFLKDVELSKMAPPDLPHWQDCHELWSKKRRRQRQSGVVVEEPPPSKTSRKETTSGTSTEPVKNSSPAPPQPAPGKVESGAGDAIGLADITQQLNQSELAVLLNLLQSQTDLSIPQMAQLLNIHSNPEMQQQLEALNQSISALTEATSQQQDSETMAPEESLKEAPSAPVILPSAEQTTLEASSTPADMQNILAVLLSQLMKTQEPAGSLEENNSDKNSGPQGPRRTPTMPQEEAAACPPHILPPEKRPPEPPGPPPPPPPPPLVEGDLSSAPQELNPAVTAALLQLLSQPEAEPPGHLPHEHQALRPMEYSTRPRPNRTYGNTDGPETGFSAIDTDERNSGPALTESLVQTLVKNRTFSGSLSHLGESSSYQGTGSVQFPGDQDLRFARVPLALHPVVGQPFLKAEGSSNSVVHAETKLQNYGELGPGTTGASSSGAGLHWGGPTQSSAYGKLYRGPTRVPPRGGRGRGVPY

CNC(=O)c1ccccc1Sc1ccc2c(/C=C/c3ccccn3)n[nH]c2c1 [AXITINIB]
inactive: [1] > 30 µM | [2] > 30 µM | [3] > 30 µM | [4] > 30 µM

Cn1cc(C2=C(c3cn(C4CCN(Cc5ccccn5)CC4)c4ccccc34)C(=O)NC2=O)c2ccccc21 [ENZASTAURIN]
inactive: [1] > 30 µM | [2] > 30 µM | [4] > 30 µM

C[C@@H](Oc1cc(-n2cnc3ccc(CN4CCN(C)CC4)cc32)sc1C(N)=O)c1ccccc1C(F)(F)F [GSK-461364]
inactive: [1] > 30 µM | [2] > 30 µM | [3] > 30 µM | [4] > 30 µM

O=C(NOCCO)c1cc(CN2OCCCC2=O)c(F)c(F)c1Nc1ccc(I)cc1F [RO-4987655]
inactive: [1] > 30 µM | [2] > 30 µM | [3] > 30 µM | [4] > 30 µM

N#CC[C@H](C1CCCC1)n1cc(-c2ncnc3[nH]ccc23)cn1 [RUXOLITINIB]
inactive: [1] > 30 µM | [2] > 30 µM | [4] > 30 µM

— ChEMBL document CHEMBL3991601, “The target landscape of clinical kinase drugs” (Science, 2017)
